# From US9493468B2, “Antifungal 5,6-dihydro-4H-pyrrolo[1,2-a][1,4]benzo-diazepines and 6H-pyrrolo[1,2-a][1,4]benzodiazepines substituted with heterocyclic derivatives” (Janssen Pharmaceutica NV, priority 2011, dated 2016)
# How the values were obtained:
# Type in all cases: cell-based
# [1] = test system: Scedosporium apiospermum; experiment: Antifungal activity in vitro, resazurin growth inhibition: Scedosporium apiospermum (IHEM3817)
# Method in brief: (§1)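 Broth microdilution: RPMI-1640/L-Gln/2% glucose, MOPS pH 7.0±0.1; 10^3 cfu/well; top concentration 64 μM, 2- or 4-fold steps. Dermatophytes at 27° C., one week or more. Resazurin 0.005% (w/v) added, fluorescence 550/590 nm.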
# [2] = test system: Trichophyton mentagrophytes; experiment: Antifungal activity in vitro, resazurin growth inhibition: Trichophyton mentagrophytes (B70554)
# Method in brief: (§2)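 Fungi (10^3 cfu/well) grown in RPMI-1640 with L-glutamine, 2% glucose, MOPS pH 7.0, against 2- or 4-fold compound dilutions up to 64 μM. Dermatophytes incubated one week or more at 27° C. Growth inhibition read fluorimetrically (λex 550, λem 590 nm) after resazurin addition and further incubation.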
# [3] = test system: Candida parapsilosis; experiment: Antifungal activity in vitro, resazurin growth inhibition: Candida parapsilosis (B66126)
# Method in brief: as §1
# [4] = test system: Sporothrix schenkii; experiment: Antifungal activity in vitro, resazurin growth inhibition: Sporothrix schenkii (B62482)
# Method in brief: as §1
# [5] = test system: Aspergillus fumigatus; experiment: Antifungal activity in vitro, resazurin growth inhibition: Aspergillus fumigatus (B42928)
# Method in brief: as §1
# [6] = test system: Trichophyton rubrum; experiment: Antifungal activity in vitro, resazurin growth inhibition: Trichophyton rubrum (B68183)
# Method in brief: as §2
# [7] = test system: Cryptococcus neoformans; experiment: Antifungal activity in vitro, resazurin growth inhibition: Cryptococcus neoformans (B66663)
# Method in brief: as §1
# [8] = test system: Scedosporium prolificans; experiment: Antifungal activity in vitro, resazurin growth inhibition: Scedosporium prolificans (IHEM21157)
# Method in brief: as §1
# [9] = test system: Rhizomucor miehei; experiment: Antifungal activity in vitro, resazurin growth inhibition: Rhizomucor miehei (IHEM13391)
# Description: (§3) The standard susceptibility screen is performed in 96-well plates (U-bottom, Greiner Bio-One). Serial dilutions (2-fold or 4-fold) of 20 mM compound stock solutions are made in 100% DMSO, followed by an intermediate dilution step in water. These serial dilutions (10 μl) are then spotted onto test-plates that can be stored in the dark at 4° C. for a maximum period of 2 weeks. An adequate broad dose-range is included with 64 μM as the highest in-test concentration. The culture medium RPMI-1640 is supplemented with L-glutamine, 2% glucose and buffered with 3-(N-morpholino)-propanesulfonic acid (MOPS) at pH 7.0±0.1.
# (§4) The different fungal species/isolates (Table 3a) are cryopreserved and 1/1000 diluted in medium just prior to use. A standard inoculum of 200 μl containing 10^3 colony-forming unit (cfu) is then added to each well. A positive control (100% growth=fungal culture without antifungal) and a negative control (0% growth ═RPMI-MOPS medium) are included on each plate. Optimal incubation time and temperature are dependent on the fungal species and vary from 24 h for yeasts (37° C.) to one week or more for dermatophytes (27° C.). Inhibition of fungal growth is measured after adding 10 μl of 0.005% (w/v) resazurin (Sigma Aldrich) to each well, based on the principle that living cells convert the non-fluorescent blue resazurin into the pink and fluorescent resorufin, allowing fluorimetric reading (λex 550 nm and λem 590 nm) after an additional incubation period (‘resa’ time mentioned in Table 3a).
# [10] = test system: Microsporum canis; experiment: Antifungal activity in vitro, resazurin growth inhibition: Microsporum canis (B68128)
# Method in brief: as §2
# [11] = test system: Rhizopus oryzae; experiment: Antifungal activity in vitro, resazurin growth inhibition: Rhizopus oryzae (IHEM5223)
# Description: as §3, §4
Compound,"Inf. H: Scedosporium apiospermum IHEM3817, pIC50 [1]","Inf. G: Trichophyton mentagrophytes B70554, pIC50 [2]","Inf. D: Candida parapsilosis B66126, pIC50 [3]","Inf. A: Sporothrix schenkii B62482, pIC50 [4]","Inf. E: Aspergillus fumigatus B42928, pIC50 [5]","Inf. C: Trichophyton rubrum B68183, pIC50 [6]","Inf. F: Cryptococcus neoformans B66663, pIC50 [7]","Inf. I: Scedosporium prolificans IHEM21157, pIC50 [8]","Inf. K: Rhizomucor miehei IHEM13391, pIC50 [9]","Inf. B: Microsporum canis B68128, pIC50 [10]","Inf. J: Rhizopus oryzae IHEM5223, pIC50 [11]"
Clc1cccc2c1CN=C(c1cnc3c(c1)CCC3)c1cccn1-2 [Compound 105],7.52,6.91,4.91,5.70,5.76,6.87,5.30,8.00,4.23,6.67,<4.19
Cn1ccc2cc(C3=NCc4c(Cl)cc(Cl)cc4-n4cccc43)ccc21 [Compound 107],4.90,5.44,4.87,5.16,5.06,5.92,5.53,5.48,<4.19,6.31,<4.19
Cn1nnc2ccc(C3=NCc4c(Cl)cccc4-n4cccc43)cc21 [Compound 110],4.77,5.60,4.58,4.44,5.50,5.96,5.09,5.89,<4.49,5.30,<4.49
Cn1nnc2ccc(C3=NCc4c(Cl)cc(Cl)cc4-n4cccc43)cc21 [Compound 111],5.77,5.31,<4.19,4.41,5.76,6.09,5.74,6.77,4.53,5.69,<4.19
c1ccc2c(c1)CN=C(c1cc3ccccc3o1)c1cccn1-2 [Compound 115],<4.19,7.28,4.25,5.70,6.82,7.47,5.70,5.98,4.88,7.02,<4.19
Cc1cccc2c1CN=C(c1cc3ccccc3o1)c1cccn1-2 [Compound 116],6.22,6.83,4.70,5.84,6.26,7.52,5.65,6.46,4.81,7.39,<4.19
Cc1cccc2c1-n1cccc1C(c1cc3ccccc3o1)=NC2 [Compound 117],4.80,6.43,<4.19,5.74,5.98,7.07,5.77,5.97,4.80,6.52,<4.19
Clc1ccc2c(c1)-n1cccc1C(c1cc3ccccc3o1)=NC2 [Compound 119],<4.19,6.62,5.61,6.00,6.30,6.87,6.40,6.17,<4.19,6.54,<4.19
Clc1cc(Cl)c2c(c1)-n1cccc1C(c1cc3ccccc3o1)=NC2 [Compound 120],4.19,5.81,<4.19,4.86,5.99,6.31,5.52,5.52,<4.19,6.16,<4.19
Clc1ccc2oc(C3=NCc4c(Cl)cccc4-n4cccc43)cc2c1 [Compound 121],5.97,6.86,<4.19,6.11,5.52,6.82,<4.19,6.15,5.58,6.96,5.77

# Now from value to molecule:
"Inf. H: Scedosporium apiospermum IHEM3817, pIC50 [1]","Inf. G: Trichophyton mentagrophytes B70554, pIC50 [2]","Inf. D: Candida parapsilosis B66126, pIC50 [3]","Inf. A: Sporothrix schenkii B62482, pIC50 [4]","Inf. E: Aspergillus fumigatus B42928, pIC50 [5]","Inf. C: Trichophyton rubrum B68183, pIC50 [6]","Inf. F: Cryptococcus neoformans B66663, pIC50 [7]","Inf. I: Scedosporium prolificans IHEM21157, pIC50 [8]","Inf. K: Rhizomucor miehei IHEM13391, pIC50 [9]","Inf. B: Microsporum canis B68128, pIC50 [10]","Inf. J: Rhizopus oryzae IHEM5223, pIC50 [11]",Compound
<4.19,5.55,<4.19,5.42,5.38,6.86,4.69,4.62,<4.19,6.90,<4.19,Cc1cccc2c1CN=C(c1cc3cc(Cl)ccc3o1)c1cccn1-2 [Compound 122]
6.02,6.23,<4.19,5.04,6.25,6.96,4.98,6.44,5.14,6.75,<4.19,Fc1ccc2oc(C3=NCc4c(Cl)cccc4-n4cccc43)cc2c1 [Compound 123]
<4.19,5.75,<4.19,5.10,6.25,6.22,6.32,5.90,<4.19,5.63,5.08,Fc1ccc2oc(C3=NCc4ccc(Cl)cc4-n4cccc43)cc2c1 [Compound 124]
5.31,5.55,<4.19,4.91,5.70,5.72,5.69,6.05,<4.19,5.85,<4.19,Fc1ccc2oc(C3=NCc4c(Cl)cc(Cl)cc4-n4cccc43)cc2c1 [Compound 125]
